Laboratory results as given in US9980943B2, “Methods of treating muscular dystrophy” (BOARD OF REGENTS OF THE NEVADA SYSTEM OF HIGHER EDUCATION, …, priority 2013, dated 2018).
Read-outs that look alike come from different tables or passages of the source.

How the values were obtained:
Type in all cases: cell-based, mouse
[1] = tested on: β-galactosidase in CMV-LacZ C2C12 myotubes; assay: CMV-LacZ secondary screen in C2C12 myotubes (β-Gal stabilizing assay); conditions: for CMV-LACZ in Myotubes (β-galactosidase activity relative to DMSO): CMV-LacZ C2C12 myotubes, 96-well format
Method in brief: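 β-Gal level was the read-out, measured in a clonal C2C12 line expressing LacZ from a CMV promoter. Dose-response curves used six concentrations, 0.5 μM up to 40 μM, with duplicate points.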

[2] = tested on: α7 integrin (LacZ reporter in α7βgal+/− myoblasts); assay: Myoblast α7+/LacZ integrin FDG assay (Burkin assay in myoblasts, 96-well); conditions: α7+/LacZ myoblasts, 96-well; for fold induction at 0.5 µM / fold induction at 1 µM / fold induction at 5 µM / fold induction at 10 µM / fold induction at 20 µM / fold induction at 40 µM: Mus musculus, Myoblast, 48 h
[3] = tested on: α7 integrin (LacZ reporter in α7+/LacZ myotubes); assay: Myotube α7 integrin FDG assay (Burkin assay in myotubes, 96-well); conditions: myotubes; for fold induction at 0.5 µM / fold induction at 1 µM / fold induction at 5 µM / fold induction at 10 µM / fold induction at 20 µM / fold induction at 40 µM: Mus musculus, Myotube
[4] = 5 uM, C2C12 CMV-LacZ myotubes, fold relative to DMSO
[5] = 10 uM, C2C12 CMV-LacZ myotubes, fold relative to DMSO
[6] = 20 uM, C2C12 CMV-LacZ myotubes, fold relative to DMSO
[7] = 40 uM, C2C12 CMV-LacZ myotubes, fold relative to DMSO

SMILES | CMV-LACZ in Myotubes (β-galactosidase activity relative to DMSO) ([1]; 5 uM) | CMV-LACZ in Myotubes (β-galactosidase activity relative to DMSO) ([1]; 10 uM) | CMV-LACZ in Myotubes (β-galactosidase activity relative to DMSO) ([1]; 20 uM) | CMV-LACZ in Myotubes (β-galactosidase activity relative to DMSO) ([1]; 40 uM) | Burkin Assay in Myoblasts, value relative to DMSO ([2]; 0.5 uM) | Burkin Assay in Myoblasts, value relative to DMSO ([2]; 1 uM) | Burkin Assay in Myoblasts, value relative to DMSO ([2]; 5 uM) | Burkin Assay in Myoblasts, value relative to DMSO ([2]; 10 uM) | Burkin Assay in Myoblasts, value relative to DMSO ([2]; 20 uM) | Burkin Assay in Myoblasts, value relative to DMSO ([2]; 40 uM) | Burkin Assay in Myotubes (signal relative to DMSO) ([3]; 0.5 uM) | Burkin Assay in Myotubes (signal relative to DMSO) ([3]; 1 uM) | Burkin Assay in Myotubes (signal relative to DMSO) ([3]; 5 uM) | Burkin Assay in Myotubes (signal relative to DMSO) ([3]; 10 uM) | Burkin Assay in Myotubes (signal relative to DMSO) ([3]; 20 uM) | Burkin Assay in Myotubes (signal relative to DMSO) ([3]; 40 uM) | CMV-LACZ in Myotubes, signal relative to DMSO [1, 4] | CMV-LACZ in Myotubes, signal relative to DMSO [1, 5] | CMV-LACZ in Myotubes, signal relative to DMSO [1, 6] | CMV-LACZ in Myotubes, signal relative to DMSO [1, 7] | other results
O=S(=O)(NCC(c1ccco1)N1CCOCC1)c1ccc(Cl)cc1 (stereo not shown) [MLS000724709-01] | 0.8422 | 0.8828 | 1.054 | 1.125 | 0.9899 | 0.9554 | 0.7389 | 0.779 | 0.486 | 0.5536 | 0.9961 | 1.467 | 1.04 | 1.002 | 0.885 | 0.9768 | – | – | – | – | –
CC(C)N(CCO)C(=O)CCc1nnc(CCCc2ccccc2)o1 [MLS000733703-01] | – | – | – | – | 0.988 | 0.9592 | 0.8919 | 0.8734 | 0.8635 | 0.8463 | 1.063 | 1.128 | 0.8779 | 1.147 | 0.9957 | 0.894 | 1.1188 | 0.8654 | 0.9583 | 0.7965 | –
CNc1cc([N+](=O)[O-])ccc1OCc1ccccc1 [MLS000737204-01] | – | – | – | – | – | – | – | – | – | – | – | – | – | – | – | – | 1.029 | 0.8068 | 0.5772 | 0.3807 | Burkin Assay in Myoblasts, signal relative to DMSO ([2]; 0.5 uM): 0.9011; Burkin Assay in Myoblasts, signal relative to DMSO ([2]; 1 uM): 0.9816; Burkin Assay in Myoblasts, signal relative to DMSO ([2]; 5 uM): 0.9164; Burkin Assay in Myoblasts, signal relative to DMSO ([2]; 10 uM): 0.9336; Burkin Assay in Myoblasts, signal relative to DMSO ([2]; 20 uM): 0.8731; Burkin Assay in Myoblasts, signal relative to DMSO ([2]; 40 uM): 0.7472; Burkin Assay in Myotubes, α7 integrin LacZ reporter signal relative to DMSO ([3]; 0.5 uM): 1.043; Burkin Assay in Myotubes, α7 integrin LacZ reporter signal relative to DMSO ([3]; 1 uM): 1.173; Burkin Assay in Myotubes, α7 integrin LacZ reporter signal relative to DMSO ([3]; 5 uM): 1.0331; Burkin Assay in Myotubes, α7 integrin LacZ reporter signal relative to DMSO ([3]; 10 uM): 1.12; Burkin Assay in Myotubes, α7 integrin LacZ reporter signal relative to DMSO ([3]; 20 uM): 0.8815; Burkin Assay in Myotubes, α7 integrin LacZ reporter signal relative to DMSO ([3]; 40 uM): 0.6682
CCCOc1nc(SCCC)nc2c1cnn2-c1ccccc1 [MLS000737953-01] | – | – | – | – | – | – | – | – | – | – | – | – | – | – | – | – | 0.8274 | 1.224 | 0.9478 | 0.9096 | Burkin Assay in Myoblasts, signal relative to DMSO ([2]; 0.5 uM): 0.9; Burkin Assay in Myoblasts, signal relative to DMSO ([2]; 1 uM): 0.9673; Burkin Assay in Myoblasts, signal relative to DMSO ([2]; 5 uM): 1.003; Burkin Assay in Myoblasts, signal relative to DMSO ([2]; 10 uM): 1.08; Burkin Assay in Myoblasts, signal relative to DMSO ([2]; 20 uM): 1.149; Burkin Assay in Myoblasts, signal relative to DMSO ([2]; 40 uM): 1.233; Burkin Assay in Myotubes, α7 integrin LacZ reporter signal relative to DMSO ([3]; 0.5 uM): 0.9665; Burkin Assay in Myotubes, α7 integrin LacZ reporter signal relative to DMSO ([3]; 1 uM): 1.135; Burkin Assay in Myotubes, α7 integrin LacZ reporter signal relative to DMSO ([3]; 5 uM): 1.241; Burkin Assay in Myotubes, α7 integrin LacZ reporter signal relative to DMSO ([3]; 10 uM): 1.226; Burkin Assay in Myotubes, α7 integrin LacZ reporter signal relative to DMSO ([3]; 20 uM): 1.007; Burkin Assay in Myotubes, α7 integrin LacZ reporter signal relative to DMSO ([3]; 40 uM): 0.5339
C[C@H](NS(=O)(=O)c1ccc(Cl)cc1)C(=O)OCC(=O)c1ccc[nH]1 [MLS000761297-01] | 0.9911 | 0.8106 | 0.993 | 0.8829 | 1.0693 | 1.071 | 1.121 | 1.055 | 1.072 | 0.9526 | 1.0906 | 1.022 | 1.154 | 1.033 | 1.045 | 1.093 | – | – | – | – | –
Nc1nccc(-c2ccc(-n3cnc4ccccc43)cc2)n1 [MLS000763405-01] | – | – | – | – | – | – | – | – | – | – | – | – | – | – | – | – | – | – | – | – | fold induction at 5 µM ([1]; Mus musculus, C2C12, read-out: CMV-LACZ in Myotubes, signal relative to DMSO, 5 uM, C2C12 CMV-LacZ myotubes, fold relative to DMSO): 1.05; fold induction at 10 µM ([1]; Mus musculus, C2C12, read-out: CMV-LACZ in Myotubes, signal relative to DMSO, 10 uM, C2C12 CMV-LacZ myotubes, fold relative to DMSO): 0.876; fold induction at 20 µM ([1]; Mus musculus, C2C12, read-out: CMV-LACZ in Myotubes, signal relative to DMSO, 20 uM, C2C12 CMV-LacZ myotubes, fold relative to DMSO): 0.824; fold induction at 40 µM ([1]; Mus musculus, C2C12, read-out: CMV-LACZ in Myotubes, signal relative to DMSO, 40 uM, C2C12 CMV-LacZ myotubes, fold relative to DMSO): 0.802; fold induction at 0.5 µM ([2]; 0.5 uM, read-out: Burkin Assay in Myoblasts, signal relative to DMSO): 0.961; fold induction at 1 µM ([2]; 1 uM, read-out: Burkin Assay in Myoblasts, signal relative to DMSO): 1.03; fold induction at 5 µM ([2]; 5 uM, read-out: Burkin Assay in Myoblasts, signal relative to DMSO): 1.46; fold induction at 10 µM ([2]; 10 uM, read-out: Burkin Assay in Myoblasts, signal relative to DMSO): 1.53; fold induction at 20 µM ([2]; 20 uM, read-out: Burkin Assay in Myoblasts, signal relative to DMSO): 1.47; fold induction at 40 µM ([2]; 40 uM, read-out: Burkin Assay in Myoblasts, signal relative to DMSO): 1.08; fold induction at 0.5 µM ([3]; 0.5 uM, read-out: Burkin Assay in Myotubes, α7 integrin LacZ reporter signal relative to DMSO): 1.03; fold induction at 1 µM ([3]; 1 uM, read-out: Burkin Assay in Myotubes, α7 integrin LacZ reporter signal relative to DMSO): 1.14; fold induction at 5 µM ([3]; 5 uM, read-out: Burkin Assay in Myotubes, α7 integrin LacZ reporter signal relative to DMSO): 1.21; fold induction at 10 µM ([3]; 10 uM, read-out: Burkin Assay in Myotubes, α7 integrin LacZ reporter signal relative to DMSO): 1.11; fold induction at 20 µM ([3]; 20 uM, read-out: Burkin Assay in Myotubes, α7 integrin LacZ reporter signal relative to DMSO): 1.45; fold induction at 40 µM ([3]; 40 uM, read-out: Burkin Assay in Myotubes, α7 integrin LacZ reporter signal relative to DMSO): 1.38
CC(=O)c1cccc(NC(=O)C(=O)Nc2cccc3ccccc23)c1 [MLS000765108-01] | 1.177 | 1.099 | 0.9927 | 0.97 | – | – | – | – | – | – | – | – | – | – | – | – | – | – | – | – | fold induction at 0.5 µM ([2]; 0.5 uM, read-out: Burkin Assay in Myoblasts, value relative to DMSO): 1.17; fold induction at 1 µM ([2]; 1 uM, read-out: Burkin Assay in Myoblasts, value relative to DMSO): 1.12; fold induction at 5 µM ([2]; 5 uM, read-out: Burkin Assay in Myoblasts, value relative to DMSO): 1.2; fold induction at 10 µM ([2]; 10 uM, read-out: Burkin Assay in Myoblasts, value relative to DMSO): 1.11; fold induction at 20 µM ([2]; 20 uM, read-out: Burkin Assay in Myoblasts, value relative to DMSO): 1.04; fold induction at 40 µM ([2]; 40 uM, read-out: Burkin Assay in Myoblasts, value relative to DMSO): 1.03; fold induction at 0.5 µM ([3]; 0.5 uM, read-out: Burkin Assay in Myotubes (signal relative to DMSO)): 0.872; fold induction at 1 µM ([3]; 1 uM, read-out: Burkin Assay in Myotubes (signal relative to DMSO)): 1.02; fold induction at 5 µM ([3]; 5 uM, read-out: Burkin Assay in Myotubes (signal relative to DMSO)): 1.06; fold induction at 10 µM ([3]; 10 uM, read-out: Burkin Assay in Myotubes (signal relative to DMSO)): 0.609; fold induction at 20 µM ([3]; 20 uM, read-out: Burkin Assay in Myotubes (signal relative to DMSO)): 0.922; fold induction at 40 µM ([3]; 40 uM, read-out: Burkin Assay in Myotubes (signal relative to DMSO)): 0.707
